Consider one compound from patent US20260263350A1, “COMPOSITIONS” (Estrenue Pty Ltd, priority 2022, published 2026).

The conditions of this data set: one skin biopsy 0.28 cm^2, 90 minutes.

“And” between values parts separate entries of the source, which are not always exact repeats. Equal values may be shown once.

Protocol: A solution of E2 14C was prepared by adding 6 μL of E2 14C to 100 μL of water:ethanol (9:1) and mixed thoroughly.
The skin was marked with a surface area of 1.3 cm^2 followed by 20 times of tape stripping (D-Squame tape, 22 mm diameter) to remove the stratum corneum. The prepared E2 solutions were applied on tape stripped skin and left in the water bath for 90 minutes at 37° C. At the end of the experiment, residual materials were removed from the surface by wetting cotton swabs three times. The skin was then biopsied using a microsampling device with a diameter of 6 mm. Each piece of biopsy was placed in a 4 mL scintillation tube followed by adding 500 μL of the Solvable™ solution (Perkin Elmer Inc. USA). The samples were left in the incubator at 60° C. to digest skin overnight. To measure the E2 14C amount in each, scintillation fluid (Ultima Gold™ XR, Perkin Elmer Inc. USA) was added to fill the 4 mL tube and vortexed vigorously. […] The experiment was done in triplicates.
To calculate DPM, a counting efficiency of 25% was considered.

For `C[C@]12CC[C@@H]3c4ccc(O)[14cH]c4CC[C@H]3[C@@H]1CC[C@@H]2O` [E2-14C, Estradiol, 17 β-[4-^14C]], the CPM (10 μL/cm^2 in water-ethanol on tape stripped skin) is 1365 and 940 and 869. Besides, the DPM (counting efficiency 25%, tape stripped skin) was 5337 and 3760 and 3476. Also, under “tape stripped skin”, the “Total E2 (ng/Biopsy)” value was 11.9 ng/Biopsy and 8.4 ng/Biopsy and 7.7 ng/Biopsy; the “ng/Biopsy (E2-14C)” value is 11.9 ng/Biopsy and 8.4 ng/Biopsy and 7.7 ng/Biopsy; the μCi/Biopsy was 0.002402 μCi/Biopsy and 0.001692 μCi/Biopsy and 0.001564 μCi/Biopsy.
